{
  "source": "patent US7452869B2",
  "about": "“NIP3 family of proteins” (University of Manitoba, priority 2000, dated 2008)",
  "key": {"BNIP3 [1]": {"test_system": "BNIP3", "experiment": "western blot of BNIP3 in neonatal cardiac myocytes treated with lactacystin (FIG. 12)", "format": "cell-based", "conditions": "hypoxic or normoxic 24 hours", "protocol": "Neonatal cardiac myocytes were incubated in hypoxic (+) or normoxic (−) conditions for 24 hours. Cells were treated with lactacystin at the indicated concentrations and lysates harvested for western blotting with anti-BNIP3 antibody. BNIP3 band is indicated with an arrow."}, "PT pore": {"test_system": "PT pore", "experiment": "mitochondrial Dcm (DiOC6), ROS production (HE) and PI staining by flow cytometry in BNIP3-transfected 293T cells", "format": "cell-based", "protocol": "Changes in mitochondrial function were determined by incubating 10 6 293T cells, transiently transfected via the CaP04 method, with either 1 mM JC-1, 40 nM DiOC6, or 2 mM dihydroethidium (HE) (all from Molecular Probes, Inc.) for 30 minutes at 37° C. in Hanks' balanced salt solution (Gibco-BRL). Cells were scored using a FACScalibur flow cytometer (Becton-Dickinson, San Jose, Calif.), and data were analyzed on Celiquest software, version 3.1 (Becton-Dickinson). Controls were performed in the presence or absence of […] mClCCP (Sigma) or an excess of 30% H2 02. For inhibition experiments, cyclosporin A (Sigma) or bongkrekic acid (a gift from J. A. Duine, Delft University, Delft, The Netherlands) was added 2 hours prior to transfection. All cells were harvested 8 hours after transfection and stained with 40 nM DiOC6, 2 mM HE, or 1 mg of propidium iodide (PI) (Sigma) per ml. In all cases, samples were gated to exclude cellular debris."}, "ventricular myocytes": {"test_system": "ventricular myocytes", "experiment": "cell viability of ventricular myocytes, calcein acetoxymethyl ester / ethidium homodimer-1", "format": "cell-based", "conditions": "Bongkrekic acid 50 μmol/L", "protocol": "Ventricular myocytes were isolated from 1- to 2-day-old Sprague-Dawley rats (University of Manitoba, Winnipeg, Canada) and submitted to primary culture as reported (Kirshenbaum and Schneider, 1995). Myocytes were subjected to hypoxia for 24 hours in an air-tight chamber continually gassed with 95% N2-5% CO2, as previously reported (Moissac et al., 2000; Long et al., 1997; Tanaka et al., 1994). Adult rat hearts (n=3) were excised from adult rats (250 to 300 g) and subjected to global hypoxia for 1 hour on a modified Langendorff perfusion system with buffer continually gassed with 95% N2-5% CO2, as previously reported (Kirshenbaum, 1993). Heart failure was induced in rats by surgical ligation of the left anterior descending coronary artery, as previously reported (Dixon et al., 1992). Non-failing sham control hearts and those with heart failure were excised from animals 8 weeks after myocardial infarction. Hearts (n=3) were dissected to remove the infarcted scar tissue, and the left ventricular free wall was homogenized and analyzed by Western blot for BNIP3 expression. Animals were handled according to guidelines established by the University of Manitoba and Canadian Council on Animal Care.\nThe cDNAs for BNIP3 full-length (BNIP3) and carboxyl terminal transmembrane domain deletion mutant (BNIP3ΔTM) have been described previously (Vande et al., 2000). Recombinant adenoviruses encoding the full-length BNIP3 or transmembrane deletion mutant are designated AdBNIP3 or AdBNIP3ΔTM, respectively, and generated as reported previously (Kirshenbaum et al., 1993).\nCell viability was determined using the vital dyes 2 μmol/L calcein acetoxymethyl ester (green) to determine the number of living cells and 2 μmol/L ethidium homodimer-1 (red) (Molecular Probes) to identify the number of dead cells (Kirshenbaum and Schneider, 1995). The number of green cells versus red cells was used to determine changes in cell viability (Moissac et al., 2000). Cells were analyzed from at least n=3 independent myocyte isolations counting ≧200 cells for each condition tested. Data are expressed as mean±SE percent reduction from control."}, "[2]": {"test_system": "mitochondrial permeability transition pore", "experiment": "mitochondrial permeability transition in ventricular myocytes, calcein-AM with cobalt chloride", "format": "cell-based, rat", "conditions": "Bongkrekic acid 50 μmol/L", "text": "To monitor mitochondrial permeability transition (PT), ventricular myocytes were loaded with 5 μmol/L calcein-acetoxymethylester (calcein-AM, Molecular Probes) in the presence of 2 to 5 mmol/L cobalt chloride as previously reported (Gurevich et al., 2001; Petronilli et al., 1998)."}, "[3]": {"test_system": "primary hippocampal neurons", "experiment": "excitotoxic cell death of primary hippocampal neurons, trypan blue exclusion", "format": "cell-based, rat", "protocol": "(§1) Primary hippocampal neurons were prepared from 18-day-old embryonic Sprague-Dawley rats as described previously by Haughey, N. J. et al. (2001). Briefly, hippocampal tissue was dissociated by gentle tituration in a calcium-free Hank's balanced salt solution and was centrifuged at 1000×g. Cells were resuspended in Dulbecco's modified Eagle's medium (DMEM)/F12 nutrient mixture containing 10% heat-inactivated fetal bovine serum and 1% antibiotic solution (104 IU of penicillin G/ml, 10 mg streptomycin/ml and 25 μg amphotericin B/ml) in 0.9% NaCl (Sigma, St Louis, Mo., USA). Hippocampal neurons were plated at a density of 2×10^5 cells/ml on 12-mm diameter poly d-lysine-coated glass coverslips. Three hours after plating, the media was replaced with serum-free Neurobasal media containing 1% B-27 supplement (Gibco, Rockville, Md., USA).\nTo determine the extent to which NMDA-type glutamate receptors were involved in BNIP3 expression and excitotoxic cell death, the inventors used the agonist NMDA (100 μM) in the absence or presence of the NMDA receptor antagonist MK-801 (10 μM). To determine the extent to which caspase activation contributes to BNIP3-mediated cell death, hippocampal cells were incubated in the absence or presence of the broad spectrum cell permeable caspase inhibitors z-VAD-FMK (50 μM) and BOC-D-FMK (50 μM); these inhibitors were applied 30 minutes prior to application of glutamate or NMDA. […]\nIn vitro cell death was estimated using trypan blue exclusion. Cells were incubated in 0.4% trypan blue solution for 30 minutes and then counted on a bright-field microscope. Nonviable cells were distinguished by their dark blue staining. To examine nuclear morphology, nuclear DNA was stained with Hoescht 33342. DNA fragmentation was detected by TUNEL using an in situ cell death detection kit with fluorescein. Statistical analyses were by ANOVA with Tukey's post-test."}, "BNIP3 [4]": {"test_system": "BNIP3", "experiment": "BNIP3 immunohistochemistry in primary hippocampal neurons after glutamate", "format": "cell-based, rat", "conditions": "100 μM glutamate", "protocol": "as §1\nFor immunohistochemistry and in situ hybridization, rats were perfused transcardially with 0.9% saline and then 4% paraformaldehyde. Brains were carefully removed and post-fixed overnight in PBS containing 4% paraformaldehyde. After rinsing in PBS, the brains were placed in PBS containing 0.5 M sucrose (pH 7.3) at 4° C. until buoyancy was lost. […] Brain sections were hybridized with the probe, incubated with an alkaline phosphatase-conjugated anti-digoxigenin antibody, and labeled cells were detected with BCIP/NBT."}, "BNIP3 [5]": {"test_system": "BNIP3", "experiment": "intrastriatal injection in rats, BNIP3 immunohistochemistry and in situ hybridization", "format": "in vivo", "conditions": "rat", "protocol": "Male Sprague-Dawley rats, with body weights ranging between 200 to 250 g, were obtained from the University of Manitoba Central Animal Care breeding facility. All procedures followed Canadian Council on Animal Care guidelines and were approved by the Animal Care Committee at the University of Manitoba. Animals were anesthetized with 74 mg/kg sodium pentobarbital (i.p.) and placed in a stereotaxic surgery frame. Unilateral intrastriatal injections were performed using the following coordinates (in mm); AP […], ML 3.0 and DV 4.5 (Paxinos, G. et al. (1986)). Drugs were administered over a 5 minute period in a volume of 1 μl using a 10 μl syringe fitted with a 30-gauge needle. Following injection, the needle was left in place for 5 minutes before being slowly withdrawn to allow diffusion of the drug away from the injection site. Kainic acid, dissolved in 50 mM Tris-HCl with the pH adjusted to 7.4 with NaOH, was administered at a dose of 2.5 nmol. Control rats received unilateral injections of 1 μl 50 mM Tris-HCl, pH 7.4. […]\nFor immunohistochemistry and in situ hybridization, rats were perfused transcardially with 0.9% saline and then 4% paraformaldehyde. […] Brain sections were hybridized with the probe, incubated with an alkaline phosphatase-conjugated anti-digoxigenin antibody, and labeled cells were detected with BCIP/NBT."}, "[6]": {"conditions": "drug 2 hours prior to transfection, harvested 8 hours posttransfection, 25 and 50 mM cyclosporin A, 100 mM bongkrekic acid"}},
  "note": "Entries after “also recorded” stand apart in the source; their conditions may differ.",
  "data": [
    {"smiles": "CC(=O)N[C@@H](CSC(=O)[C@]1([C@@H](O)C(C)C)NC(=O)[C@H](C)[C@@H]1O)C(=O)O", "note": "[Lactacystin]", "values": [
      {"measurement": "degradation of the BNIP3 protein (western blot)", "setting": "BNIP3 [1]", "value": "slows the degradation"}
    ]},
    {"smiles": "CO[C@H](C/C=C\\C=C\\CC/C=C/C[C@H](C)/C=C/C(=C\\C(=O)O)CC(=O)O)/C(C)=C\\C=C(/C)C(=O)O", "note": "[bongkrekic acid]", "values": [
      {"measurement": "maximum suppression of BNIP3 effects, of that in control cells", "setting": "PT pore; Dcm suppression, ROS generation and cell death", "value": "about 50%"},
      {"measurement": "cell death (PI staining) in BNIP3 transfectants", "setting": "PT pore; drug 2 hours prior to transfection, harvested 8 hours posttransfection, 50 mM cyclosporin A, 100 mM bongkrekic acid", "value": "dose-dependent reversal; also recorded: significantly suppressed"},
      {"measurement": "Dcm suppression (DiOC6) in BNIP3 transfectants", "setting": "PT pore; [6]", "value": "dose-dependent reversal; also recorded: significantly inhibited"},
      {"measurement": "ROS generation (HE fluorescence) in BNIP3 transfectants", "setting": "PT pore; [6]", "value": "dose-dependent reversal; also recorded: inhibited"},
      {"measurement": "BNIP3-induced mitochondrial defects and cell death", "setting": "ventricular myocytes", "value": "prevented"},
      {"measurement": "BNIP3-induced loss of mitochondrial calcein staining", "setting": "[2]", "value": "suppressed"}
    ]},
    {"smiles": "N[C@@H](CCC(=O)O)C(=O)O", "note": "[glutamate]", "values": [
      {"measurement": "hippocampal neurons killed", "setting": "[3]; 10 μM glutamate for 6 hours, then Neurobasal media 24 hours", "value": 40, "unit": "%"},
      {"measurement": "cells stained positively for trypan blue", "setting": "[3]; 100 μM glutamate for 6 hours, then Neurobasal media 24 hours", "value": 70, "unit": "%"},
      {"measurement": "neuronal cell death (trypan blue exclusion)", "setting": "[3]; 6 hours after application, p<0.01", "value": "significantly increased"},
      {"measurement": "cells stained positive for BNIP3", "setting": "BNIP3 [4]", "value": "more than 50%"}
    ]},
    {"smiles": "C=C(C)[C@H]1CN[C@H](C(=O)O)[C@H]1CC(=O)O", "note": "[kainic acid]", "values": [
      {"measurement": "BNIP3 expression in striatum (immunohistochemistry)", "setting": "BNIP3 [5]; intrastriatal 1 μl, 2.5 nmol kainic acid, 5 nmol CNQX alone or mixed with kainic acid, 48 hours", "value": "observed only in those rats that received kainic acid alone"},
      {"measurement": "levels of BNIP3 mRNA (in situ hybridization)", "setting": "BNIP3 [5]; intrastriatal kainic acid", "value": "increased"}
    ]}
  ]
}
